Assays:
[1] = Effect of pH on fluorescence intensity; assay type: physicochemical; conditions: 1 μmol/L in 1:1 mixture of buffer (pH 7.4, 6.5, 4) and DMSO; FIG. 7
Method: Compound (3) was added to a 1:1 mixture of PBS (pH 7.4), Tris-HCl buffer (pH 6.5), phthalate buffer (pH 4) and DMSO to a final concentration of 1 μmol/L and the fluorescence spectrum was measured.

HeLa cells [2] = assay: Endosome staining test (confocal laser microscope); assay type: cell-based; conditions: endosomes enlarged by wortmannin 100 nM, 30 minutes at 37° C., FIG. 9
Method: HeLa cells were seeded on μ-slide 8 well plates (ibidi) and cultured overnight in an incubator (37° C., 5% CO2 presence, MEM medium (containing 10% fetal bovine serum and 1% penicillin/streptomycin)). The medium was removed and wortmannin (100 nM: a PI-3 kinase inhibitor that hypertrophies early endosomes) diluted in MEM medium Various fluorescent compounds (Compound (3), pHrodo Dex (Thermofisher), FM1-43 (Molecular Probe)) diluted with MEM medium were added and incubated for 30 minutes at 37° C. The supernatant was removed, and the cells were incubated at 37° C. for 30 minutes. The supernatant was removed, replaced with MEM medium and observed with a confocal laser microscope. In addition, instead of adding fluorescent compounds, the same experiment was performed using HeLa cells expressing Rab5-RFP (cDNA encoding a fusion protein in which a fluorescent protein is fused to an endosomal membrane-specific protein) before addition of wortmannin. The same experiments were also performed on the control group (CTRL) without adding wortmannin.

HeLa cells [3] = assay: Cell staining test (confocal laser microscope); assay type: cell-based; conditions: FIG. 8
Method: HeLa cells were seeded onto μ-slide 8 well plates (ibidi) and cultured overnight in an incubator (37° C., 5% CO2, MEM medium (containing 10% fetal bovine serum and 1% penicillin/streptomycin)).

Structure (SMILES)	change of fluorescence intensity with pH [1]	staining of endosomes (membrane versus contents) (HeLa cells [2])	localisation of fluorescent compound after leaving overnight (retention in cell membrane) (HeLa cells [3])
CCCCCN1C(=O)c2cccc3c(N4CCN(CCCS(=O)(=O)O)CC4)ccc(c23)C1=O [Compound (3)]	marked increase in fluorescence intensity was observed with decreasing pH	only the endosomal membrane was specifically stained	–
CCCCCN1C(=O)c2ccc3c4cccc5c(N6CCN(CCCS(=O)(=O)O)CC6)ccc(c6ccc(c2c36)C1=O)c54 [Compound (2)]	–	–	remained in the cell membrane
O=C1c2ccc3c4cccc5cccc(c6ccc(c2c36)C(=O)N1CCCS(=O)(=O)O)c54 [Compound (1)]	–	–	remained in the cell membrane

— patent publication US20250388756A1, “NOVEL FLUORESCENT COMPOUND, AND LIPID BILAYER DYEING METHOD AND ENDOCYTOSIS DETECTION METHOD USING SAID COMPOUND” (DOJINDO LABORATORIES, priority 2020, published 2025)
